The supplement of paper PMC10307832

What was measured:
Assay in all cases: relative viability (nuclei count vs DMSO), 5 days (fraction); higher = more cells survive
XMD13-2 + Pictilisib = compound: C1CC1C(=O)NC2=NNC3=C2C=CC(=C3)C4=CC(=CC=C4)C(=O)NC5CC5 [XMD13-2] + CS(=O)(=O)N1CCN(Cc2cc3nc(-c4cccc5[nH]ncc45)nc(N4CCOCC4)c3s2)CC1 [Pictilisib] (partner 1 µM)
How it was run: (§1)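 Lung cancer cell lines, seeded in 1536-well plates, were treated the following day by pin tool with a single drug or with five library-drug doses (not always all listed) in √10 steps on top of a fixed anchor-drug dose. Cells were fixed and nuclei stained in one step after 5 days, and nuclei were counted. Relative viability is the nuclei count for treated wells divided by that for vehicle wells, reported as medians of duplicate plates.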

Dasatinib + Lapatinib = compound: Cc1nc(Nc2ncc(C(=O)Nc3c(C)cccc3Cl)s2)cc(N2CCN(CCO)CC2)n1 [Dasatinib] + CS(=O)(=O)CCNCc1ccc(-c2ccc3ncnc(Nc4ccc(OCc5cccc(F)c5)c(Cl)c4)c3c2)o1 [Lapatinib] (partner 2 µM)
How it was run: as §1

XMD13-2 + Foretinib = compound: C1CC1C(=O)NC2=NNC3=C2C=CC(=C3)C4=CC(=CC=C4)C(=O)NC5CC5 [XMD13-2] + COc1cc2c(Oc3ccc(NC(=O)C4(C(=O)Nc5ccc(F)cc5)CC4)cc3F)ccnc2cc1OCCCN1CCOCC1 [Foretinib] (partner 0.25 µM)
How it was run: as §1

ALW-II-49-7 + Luminespib = compound: Cc1ccc(C(=O)Nc2cccc(C(F)(F)F)c2)cc1Nc1cncc(C(N)=O)c1 [ALW-II-49-7] + CCNC(=O)c1noc(-c2cc(C(C)C)c(O)cc2O)c1-c1ccc(CN2CCOCC2)cc1 [Luminespib] (partner 0.01 µM)
How it was run: as §1

Cell Line	relative viability (XMD13-2 + Pictilisib; first compound 0.05 µM)	relative viability (XMD13-2 + Pictilisib; first compound 0.1581 µM)	relative viability (XMD13-2 + Pictilisib; first compound 0.5 µM)	relative viability (XMD13-2 + Pictilisib; first compound 1.581 µM)	relative viability (XMD13-2 + Pictilisib; first compound 5 µM)	relative viability (Dasatinib + Lapatinib; first compound 0.005 µM)	relative viability (Dasatinib + Lapatinib; first compound 0.01581 µM)	relative viability (Dasatinib + Lapatinib; first compound 0.05 µM)	relative viability (Dasatinib + Lapatinib; first compound 0.1581 µM)	relative viability (Dasatinib + Lapatinib; first compound 0.5 µM)	relative viability (XMD13-2 + Foretinib; first compound 0.05 µM)	relative viability (XMD13-2 + Foretinib; first compound 0.1581 µM)	relative viability (XMD13-2 + Foretinib; first compound 0.5 µM)	relative viability (XMD13-2 + Foretinib; first compound 1.581 µM)	relative viability (XMD13-2 + Foretinib; first compound 5 µM)	relative viability (ALW-II-49-7 + Luminespib; first compound 0.08 µM)	relative viability (ALW-II-49-7 + Luminespib; first compound 0.253 µM)	relative viability (ALW-II-49-7 + Luminespib; first compound 0.8 µM)	relative viability (ALW-II-49-7 + Luminespib; first compound 2.53 µM)	relative viability (ALW-II-49-7 + Luminespib; first compound 8 µM)
PC-3 [JPC-3]	0.746	0.733	0.777	0.747	0.724	0.422	0.393	0.444	0.331	0.335	1.02	1.02	1.05	0.999	0.989	0.669	0.698	0.636	0.548	0.772
HCC-44	0.665	0.597	0.609	0.533	0.571	1.03	0.942	1.07	0.844	0.555							0.987	1.12	0.333	1.04
NCI-H2405	0.539	0.543	0.434	0.389	0.474	0.684	0.81	0.465	0.222	0.17	1.09	1	1.09	1.06	1.04	0.788	0.598	0.646	0.474	0.459
LXF-289	0.941	0.728	0.806	0.714	0.642	0.941	1.01	0.971	0.604	0.223	0.979	0.973	0.897	0.98	1.06	0.731	0.626	0.825	0.688	0.848
LOU-NH91	0.565	0.506	0.524	0.494	0.511	0.673	0.592	0.571	0.503	0.414	1.01	0.979	1	0.943	1.04	0.384	0.363	0.321	0.276	0.283
A549	0.677	0.508	0.565	0.477	0.504	0.955	0.824	0.83	0.673	0.194	1.08	0.972	0.902	0.965	0.97					
H3255	0.589	0.525	0.485	0.526	0.445	0.303	0.212	0.208	0.155	0.204	0.886	0.891	0.893	0.696	0.984	1.02	0.851	0.972	0.876	0.648
NCI-H1395	0.724	0.646	0.623	0.574	0.528	0.926	0.954	0.678	0.479	0.466	0.983	1.02	1.05	0.992	1	0.754	0.796	0.823	0.716	0.706
LC-2-ad	0.533	0.352	0.569	0.413	0.332	0.648	0.876	0.952	0.699	0.186	1.07	1.07	0.987	0.789	0.807	0.962	1.04	1.02	0.494	1
NCI-H838	0.423	0.512	0.497	0.447	0.466	0.925	0.678	0.504	0.252	0.237	1.19	1.05	1.01	1.04	1.01	0.233	0.257	0.344	0.272	0.211
Calu-6	1.09	0.92	0.909	0.757	0.439	0.924	0.776	0.848	0.642	0.59	0.954	0.906	0.89	0.909	0.772					
LCLC-97TM1	0.297	0.187	0.13	0.148	0.123	1.2	1.2	0.772	0.904	0.362	1.04	0.918	0.975	0.965	0.685	0.772	0.689	0.807	0.869	0.656
HCC-15	0.766	0.721	0.778	0.712	0.467	0.887	0.942	0.846	0.764	0.658	1.14	1	1.14	0.981	0.62	0.172	0.302	0.319	0.304	0.391
CAL-12T	0.531		0.339	0.327	0.371	0.624	0.551	0.597	0.252	0.172	1.22	1.07	1.09	1.11	1.01	0.193	0.293	0.517	0.285	0.38
NCI-H727	0.421	0.321	0.36	0.527	0.551	0.588	0.667	0.581	0.37	0.277	1.21	0.903	0.946	0.738	0.737	0.419	0.336	0.392	0.367	0.239
ABC-1	0.946	0.744	0.706	0.791	0.3	0.993	0.896	1.38	0.872	0.693	0.949	1.1	1.41	1.03	0.846	0.472	0.535	0.718	0.355	0.496

Cell Line	relative viability (XMD13-2 + Pictilisib; first compound 0.05 µM)	relative viability (XMD13-2 + Pictilisib; first compound 0.1581 µM)	relative viability (XMD13-2 + Pictilisib; first compound 0.5 µM)	relative viability (XMD13-2 + Pictilisib; first compound 1.581 µM)	relative viability (XMD13-2 + Pictilisib; first compound 5 µM)	relative viability (Dasatinib + Lapatinib; first compound 0.005 µM)	relative viability (Dasatinib + Lapatinib; first compound 0.01581 µM)	relative viability (Dasatinib + Lapatinib; first compound 0.05 µM)	relative viability (Dasatinib + Lapatinib; first compound 0.1581 µM)	relative viability (Dasatinib + Lapatinib; first compound 0.5 µM)	relative viability (XMD13-2 + Foretinib; first compound 0.05 µM)	relative viability (XMD13-2 + Foretinib; first compound 0.1581 µM)	relative viability (XMD13-2 + Foretinib; first compound 0.5 µM)	relative viability (XMD13-2 + Foretinib; first compound 1.581 µM)	relative viability (XMD13-2 + Foretinib; first compound 5 µM)	relative viability (ALW-II-49-7 + Luminespib; first compound 0.08 µM)	relative viability (ALW-II-49-7 + Luminespib; first compound 0.253 µM)	relative viability (ALW-II-49-7 + Luminespib; first compound 0.8 µM)	relative viability (ALW-II-49-7 + Luminespib; first compound 2.53 µM)	relative viability (ALW-II-49-7 + Luminespib; first compound 8 µM)
NCI-H2023	0.318	0.244	0.219	0.24	0.225	0.584	0.703	0.742	0.758	0.64	0.82	0.825	0.791	0.798	0.864	0.524	0.754	0.919	0.682	0.476
NCI-H2342											0.973	1.04	1.11	0.984	1.01	0.641	0.705	0.676	0.751	0.775
SW 1573	0.57	0.525	0.476	0.466	0.272	1.15	0.967	1.01	0.738	0.826	1.01	0.832	0.984	0.841	0.733	0.29	0.223	0.251	0.289	0.144
ChaGo-K-1	0.82	0.631	0.461		0.599						0.883	0.885	0.944	0.882	0.932	0.529	0.664	0.544	0.444	0.438
NCI-H1703	0.296	0.262	0.267	0.237	0.193	0.638	0.326	0.429	0.185	0.16	0.303	0.411		0.336	0.393					
NCI-H522																1.41	1.05	1.08	1.15	1.18
LCLC-103H	0.684	0.714	0.585	0.657	0.622						0.759	0.726	0.735	0.61	0.575	0.852	1.01	1.03	0.854	1.03
SW 900											1.1	0.963	0.922	0.963	0.677	0.16	0.141	0.191	0.171	0.155
NCI-H1792	0.29	0.249	0.266	0.284	0.265	0.885	0.859	0.907	0.673	0.364							0.383	0.276	0.293	0.349
NCI-H1623											0.898	0.864	0.892	0.824	0.947	0.518	0.428	0.431	0.561	0.698
IA-LM	0.387	0.317	0.339	0.3	0.179	0.996	0.828	1.08	0.55	0.436	1.07	1.29	1.12	1.11	0.621					
HCC-366	0.189	0.136	0.151	0.2	0.12	0.99	0.713	0.695	0.446	0.337	1.02	0.915	0.952	0.905	0.896					
HCC-78	0.227	0.281	0.195	0.223	0.188	0.359	0.694	0.696	0.478	0.19	0.541	0.539	0.502	0.51	0.487					
EBC-1	0.395	0.431	0.377	0.287	0.142	0.248	0.217	0.236	0.233	0.252	0.0838	0.0911	0.109	0.124	0.0963					
NCI-H441	0.445	0.505	0.539	0.37	0.411						1.1	0.902	0.956	1.06	0.661	0.332	0.32	0.313	0.35	0.243
NCI-H1299	0.896	0.738	0.826	0.592	0.398	0.971	0.971	1.1	0.529	0.299	1.02	1.12	1.15	1.14	1.16					
